# Test results from patent US20210145801A1, “THERAPY FOR PROTEIN MISFOLDING DISEASE” (WREN THERAPEUTICS LIMITED, priority 2018, published 2021).
# Entries after “also recorded” stand apart in the source; their conditions may differ.
# Experiments:
# Aβ42 [1] = target: T1, Aβ42 (Homo sapiens, UniProt P05067); experiment: Aβ42 aggregation kinetics in human CSF; type: biochemical; details: 66% CSF; 1.25 and 5-fold excess
# T1 construct: made in house; host or cells: E. coli BL21 Gold (DE3)
# Protocol: For the experiments of Aβ42 aggregation kinetics in human CSF, monomeric solutions of 3 μM Aβ42 were prepared similar to above with the only exception that the buffer was 20 mM Hepes, pH 8 supplemented with 1 mM CaCl2 at 150 mM NaCl. The obtained monomer was diluted with the […] in order to reach 66% final concentration of CSF, in which the effect of CSF is close to maximum. Aβ42 aggregation kinetics were performed in the absence and the presence of 1.25 and 5-fold excess of Netoglitazone.
# Aβ42 [2] = target: T1, Aβ42; experiment: ThT kinetic assay of Aβ42 aggregation (unseeded); type: biochemical
# From the text: The recombinant Aβ(M1-42) peptide ([…]-SNKGAIIGLMVGGVVIA [SEQ ID NO: 1]), here called Aβ42, was expressed in the E. coli BL21 Gold (DE3) strain (Stratagene, Calif., U.S.A.) and purified as described previously with slight modifications. Briefly, the purification procedure involved sonication of E. coli cells, dissolution of inclusion bodies in 8 M urea, and ion exchange in batch mode on diethylaminoethyl cellulose resin and lyophylization. The lyophilized fractions were further purified using Superdex 75 HR 26/60 column (GE Healthcare, Buckinghamshire, U.K.) and eluates were analyzed using SDS-PAGE for the presence of the desired protein product. The fractions containing the recombinant protein were combined, frozen using liquid nitrogen, and lyophilized again.
# Except for Netoglitazone, which was custom synthesised by GVK BIO, all small molecules were purchased with a purity greater than 99%. Small molecules were first solubilized in 100% DMSO to a concentration of 5 mM, and then diluted in the peptide solution to reach a final DMSO concentration of maximum 1-3%. We verified that the addition of DMSO in the reaction mixture has no effect on Aβ42 aggregation.
# Solutions of monomeric peptides were prepared by dissolving the lyophilized Aβ42 peptide in 6 M GuHCl. Monomeric forms were purified from potential oligomeric species and salt using a Superdex 75 10/300 GL column (GE Healthcare) at a flowrate of 0.5 mL/min, and were eluted in 20 mM sodium phosphate buffer, pH 8 supplemented with 200 μM EDTA and 0.02% NaN3. The centre of the peak was collected, and the peptide concentration was determined from the absorbance of the integrated peak area using ε280=1490 L mol^−1 cm^−1. The obtained monomer was diluted with buffer to the desired concentration and supplemented with 20 μM Thioflavin T (ThT) from a 1 mM stock. All samples were prepared in low binding Eppendorf tubes on ice using careful pipetting to avoid introduction of air bubbles. Each sample was then pipetted into multiple wells of a 96-well half-area, low-binding, clear bottom and PEG coating plate (Corning 3881), 80 μL per well. Aβ42 kinetics have been performed in the absence or the presence of Netoglitazone, Mitoglitazone, Rosiglotazone, Rivoglitazone, Pioglitazone, Ciglitazone, Englitazone, Darglitazone, Troglitazone and Balaglitazone.
# The time evolution of the total fibril mass concentration is described as a function only of the initial conditions and the rate constants of the system by the integrated rate law given by Eq. (54) in Cohen et al., J Chem Phys 135, 065106, 2011.
# These are related to the rate of formation of new aggregates through primary pathways λ=√{square root over (2k+knm(0)^n^c)} and through secondary pathways κ=√{square root over (2k+k2m(0)^n^2^+1)}, where the initial concentration of soluble monomers is denoted by m(0), nc and n2 describe the dependencies of the primary and secondary pathways on the monomer concentration (nc=n2=2 for Aβ42), and kn, k+ and k2 are the rate constants of the primary nucleation, elongation and secondary nucleation, respectively (Cohen et al., Proc Natl Acad Sci USA, 110(24), 9758-63, 2013).
# Inhibitors can interfere with the aggregation process by inhibiting one or more of the individual microscopic steps.
# [3] = system: Aβ1-42Neur worms (CL2355); experiment: Chemotaxis assay in Aβ1-42Neur worms; type: in vivo, C. elegans; details: 5 μM; 5 days at 24° C.; day 6 of adulthood
# Protocol: Chemotaxis measurements were carried out as previously described (O. Margie, C. Palmer, I. Chin-Sang, C. elegans Chemotaxis Assay. J Vis Exp, e50069 (2013)) and as illustrated in FIG. 6C. Briefly, adult synchronized transgenic C. elegans CL2355 worms and wild-type healthy worms were incubated with or without 5 μM Netoglitazone for 5 days 24° C. At day 6 of adulthood the worms were then collected, washed with M9 buffer three times, and assayed in 9 cm screening plates (1.9% agar, 1 mM CaCl2), 1 mM MgSO4, and 25 mM phosphate buffer, pH 6.0) seeded with 50 μl of a 10× culture of Op50 Bacteria or sterile water, as attractant or test conditions, respectively and in combination with 1 μl of 1M Levamisole. Ca. 200 worms were placed in the central quadrant of the plate and incubated at 24° C. for 8 h, after which the chemotaxis index (CI) was scored. The CI was defined as follows (O. Margie et al (2013)):
# (number of worms at the attractant locations−number of worms at the control locations)/total number of worms on the plate
# Worms that were remaining in the central quadrant were excluded.
# T1 sequence (P05067 671-713): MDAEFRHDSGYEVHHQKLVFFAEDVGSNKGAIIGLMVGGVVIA
smiles,measurement,setting,value
O=C1NC(=O)C(Cc2ccc3cc(OCc4ccccc4F)ccc3c2)S1 (stereo not shown) [Netoglitazone],Delay of Aβ42 aggregation kinetics in 66% human CSF,Aβ42 [1],significantly delayed the aggregation kinetics in a concentration-dependent manner
same,Effect on rate constants of primary (knk+) and secondary (k2k+) pathways,"Aβ42 [2]; 2 μM Aβ42, unseeded, fit of rate laws",can affect both nucleation pathways in Aβ42 aggregation to different extents
same,Delay of Aβ42 aggregation (ThT fibril formation),"Aβ42 [2]; 2 μM Aβ42, range of Netoglitazone concentrations",substantial delay in Aβ42 aggregation was observed in a concentration-dependent manner
same,Chemotaxis index of Aβ1-42Neur worms,[3],chemotaxis index was significantly improved; also recorded: significantly improves the (A) chemotaxis index
